Patent publication US7829665B2 (priority 2005, dated 2010)
Where two headings read alike, the source gives them in different places.

Assays:
[1] = biological target: T1, full-length NS3/NS4A-2 (HCV NS3 protease) (Hepatitis C virus genotype 1a, UniProt P27958); assay: NS3-NS4 protease assay / NS3 inhibition assay (RETS1 substrate, fluorescence kinetic read); type: biochemical
T1 construct: Recombinant E. coli or Baculovirus full-length NS3 was diluted to 3.33 μM with assay buffer; made in house; host or cells: E. coli or baculovirus (BV) expression system
Summary of the method: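 Full-length NS3 from E. coli (2 nM in assay) or baculovirus (3 nM) was precomplexed with excess NS4A-2 peptide, then preincubated 10 min at room temperature with serially diluted compounds starting at 50 microM. Reaction was started with RETS1 substrate at 8 μM before addition and read kinetically for 30 min (ex 335/em 495 nm). Four-parameter IC50s were converted to Ki by Cheng-Prusoff using Km 2.03 μM (E. coli) or 1.74 μM (BV).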

[2] = system: HCV sub-genomic replicon in GS4.3 cells (HuH-7 hepatoma cells); assay: Quantitation by ELISA of Neomycin phosphotransferase II (NPTII) in the HCV sub-genomic replicon, GS4.3; type: cell-based, hepatitis C virus; settings: Hepatitis C virus, Huh-7; GS4.3 cells, 72 h incubation, NPTII ELISA; read-out: Replicon EC50
Summary of the method: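 HuH-7 GS4.3 cells carrying HCV sub-genomic replicon 1377/NS3-3′, treated 72 h at 37 °C without G418 with 3-fold dilutions from 10 μM to 56 pM (1% DMSO). NPTII in cell lysates measured by direct ELISA with TMB readout at 450 nm. EC50 from 4-parameter fit of percent DMSO-control signal.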

[3] = recombinant E. coli or Baculovirus full-length NS3 with NS4A-2, read-out: NS3-NS4 IC50

T1 sequence (P27958 1027-1657): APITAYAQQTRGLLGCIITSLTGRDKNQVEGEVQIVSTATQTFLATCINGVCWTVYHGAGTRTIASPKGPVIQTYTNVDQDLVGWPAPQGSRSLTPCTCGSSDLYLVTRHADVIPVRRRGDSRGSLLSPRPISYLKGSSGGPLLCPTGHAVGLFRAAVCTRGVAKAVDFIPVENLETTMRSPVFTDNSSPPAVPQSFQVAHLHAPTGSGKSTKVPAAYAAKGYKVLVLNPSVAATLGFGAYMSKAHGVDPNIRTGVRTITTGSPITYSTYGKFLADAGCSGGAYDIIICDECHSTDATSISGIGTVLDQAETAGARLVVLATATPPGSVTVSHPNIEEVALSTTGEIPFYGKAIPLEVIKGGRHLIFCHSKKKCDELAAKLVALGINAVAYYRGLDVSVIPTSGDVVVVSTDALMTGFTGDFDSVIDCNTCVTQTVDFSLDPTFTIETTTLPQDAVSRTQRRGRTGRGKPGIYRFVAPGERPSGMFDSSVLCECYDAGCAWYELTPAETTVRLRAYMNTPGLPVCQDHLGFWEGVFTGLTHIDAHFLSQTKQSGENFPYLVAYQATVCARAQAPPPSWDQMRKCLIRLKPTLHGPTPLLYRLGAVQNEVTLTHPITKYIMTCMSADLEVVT

SMILES	IC50 [1, 3]	EC50 [2]	IC50 [1]
CC(C)(C)OC(=O)N[C@H]1COCCC/C=C\[C@@H]2C[C@@]2(C(=O)O)NC(=O)[C@@H]2C[C@@H](OC(=O)N3Cc4cccc(Cl)c4C3)CN2C1=O [Compound 1024]	< 100 nM	< 100 nM	–
O=C(N[C@H]1CCCCC/C=C\[C@@H]2C[C@@]2(C(=O)NS(=O)(=O)c2cc(Cl)sc2Cl)NC(=O)[C@@H]2C[C@@H](OC(=O)N3Cc4cccc(F)c4C3)CN2C1=O)OC1CCCC1 [Compound 173]	< 100 nM	< 100 nM	–
O=C1N[C@]2(C(=O)NS(=O)(=O)C3CC3)C[C@H]2/C=C\CCCCC[C@H](NC(=O)C2(O)CC2)C(=O)N2C[C@H](OC(=O)N3Cc4cccc(F)c4C3)C[C@@H]12 [Compound 249]	< 100 nM	< 1000 nM	–
O=C(N[C@H]1CCC(F)(F)CC/C=C\[C@@H]2C[C@@]2(C(=O)NS(=O)(=O)C2CC2)NC(=O)[C@@H]2C[C@@H](OC(=O)N3Cc4cccc(F)c4C3)CN2C1=O)OC1CCCC1 [Compound 1004]	< 100 nM	< 100 nM	–
CN(C)CCOc1ccc2c(c1)CN(C(=O)O[C@@H]1C[C@H]3C(=O)N[C@]4(C(=O)O)C[C@H]4/C=C\CCCCC[C@H](NC(=O)OC4CCCC4)C(=O)N3C1)C2 [Compound 133]	< 100 nM	< 10000 nM	–
CC[C@@H]1C[C@H]2C(=O)N[C@]3(C(=O)NS(=O)(=O)C4CC4)C[C@H]3/C=C\CCCCC[C@H](NC(=O)OC3CCCC3)C(=O)N2C1 [Compound 314]	< 100 nM	< 10000 nM	–
O=C1N[C@]2(C(=O)NS(=O)(=O)C3CC3)C[C@H]2/C=C\CCCCC[C@H](NC(=O)N2CCCC2)C(=O)N2C[C@H](OC(=O)N3Cc4cccc(F)c4C3)C[C@@H]12 [Compound 243]	< 100 nM	< 100 nM	–
CC(C)(C)OC(=O)N[C@H]1CCCCC/C=C\[C@@H]2C[C@@]2(C(=O)NS(=O)(=O)C2CC2)NC(=O)[C@@H]2C[C@@H](OC(=O)N3Cc4cccc(C(F)(F)F)c4C3)CN2C1=O [Compound 170]	< 100 nM	< 100 nM	–
CC(C)(C)OC(=O)N[C@H]1CCCCC/C=C\[C@@H]2C[C@@]2(C(=O)NS(=O)(=O)C2(Cc3ccccc3)CC2)NC(=O)[C@@H]2C[C@@H](OC(=O)N3Cc4cccc(Cl)c4C3)CN2C1=O [Compound 161]	< 100 nM	< 100 nM	–
CC(C)C(O)C(=O)N[C@H]1CCCCC/C=C\[C@@H]2C[C@@]2(C(=O)NS(=O)(=O)C2CC2)NC(=O)[C@@H]2C[C@@H](OC(=O)N3Cc4cccc(F)c4C3)CN2C1=O (stereo partly drawn) [Compound 250]	< 100 nM	< 1000 nM	–
CC(C)(C)OC(=O)N[C@H]1CCOCC/C=C\[C@@H]2C[C@@]2(C(=O)O)NC(=O)[C@@H]2C[C@@H](OC(=O)N3Cc4cccc(F)c4C3)CN2C1=O [Compound 1026]	< 100 nM	< 10000 nM	–
CC(C)(C)OC(=O)N[C@H]1CCCCC/C=C\[C@@H]2C[C@@]2(C(=O)Nc2nccs2)NC(=O)[C@@H]2C[C@@H](OC(=O)N3Cc4cccc(F)c4C3)CN2C1=O [Compound 614]	< 1000 nM	< 1000 nM	–
CC(C)(C)OC(=O)N[C@H]1CCCCC/C=C\[C@@H]2C[C@@]2(C(=O)NCc2cccc(C(O)C(F)(F)F)c2)NC(=O)[C@@H]2C[C@@H](OC(=O)N3Cc4cccc(F)c4C3)CN2C1=O (stereo partly drawn) [Compound 605]	< 1000 nM	< 1000 nM	–
CC(C)(C)OC(=O)N[C@H]1CCC(F)(F)CC/C=C\[C@@H]2C[C@@]2(C(=O)NS(=O)(=O)C2CC2)NC(=O)[C@@H]2C[C@@H](OC(=O)N3Cc4cccc(F)c4C3)CN2C1=O [Compound 1002]	< 100 nM	< 100 nM	–
CC(C)(C)OC(=O)N[C@H]1CCCCC/C=C\[C@@H]2C[C@@]2(C(=O)NS(=O)(=O)c2cc(Cl)sc2Cl)NC(=O)[C@@H]2C[C@@H](OC(=O)N3Cc4cccc(F)c4C3)CN2C1=O [Compound 162]	< 100 nM	< 100 nM	–
O=C(CCO)N[C@H]1CCCCC/C=C\[C@@H]2C[C@@]2(C(=O)NS(=O)(=O)C2CC2)NC(=O)[C@@H]2C[C@@H](OC(=O)N3Cc4cccc(F)c4C3)CN2C1=O [Compound 251]	< 100 nM	< 10000 nM	–
Cc1ccccc1S(=O)(=O)NC(=O)[C@@]12C[C@H]1/C=C\CCCCC[C@H](N)C(=O)N1C[C@H](OC(=O)N3Cc4cccc(F)c4C3)C[C@H]1C(=O)N2 [Compound 159]	–	< 1000 nM	< 100 nM
CN(C)S(=O)(=O)NC(=O)[C@@]12C[C@H]1/C=C\CCCCC[C@H](NC(=O)OC1CCCC1)C(=O)N1C[C@H](OC(=O)N3Cc4cccc(F)c4C3)C[C@H]1C(=O)N2 [Compound 215]	< 100 nM	< 100 nM	–
O=C(NC1CCCC1)N[C@H]1CCCCC/C=C\[C@@H]2C[C@@]2(C(=O)NS(=O)(=O)C2CC2)NC(=O)C2C[C@@H](OC(=O)N3Cc4cccc(Cl)c4C3)CN2C1=O (stereo partly drawn) [Compound 180]	< 100 nM	< 100 nM	–
CC(C)(C)OC(=O)N[C@H]1CCCCC/C=C\[C@@H]2C[C@@]2(C(=O)O)NC(=O)[C@@H]2C[C@@H](OC(=O)N3Cc4ccc(C(F)(F)F)cc4C3)CN2C1=O [Compound 110]	< 1000 nM	< 10000 nM	–
O=C(N[C@H]1CCCCC/C=C\[C@@H]2C[C@@]2(C(=O)NS(=O)(=O)C2CC2)NC(=O)[C@@H]2C[C@@H](OC(=O)N3Cc4ccncc4C3)CN2C1=O)OC1CCCC1 [Compound 155]	< 100 nM	< 1000 nM	–
CC(C)(C)OC(=O)N[C@H]1CCC(F)(F)CC/C=C\[C@@H]2C[C@@]2(C(=O)O)NC(=O)[C@@H]2C[C@@H](OC(=O)N3Cc4ccccc4C3)CN2C1=O [Compound 1007]	< 100 nM	< 10000 nM	–
CC(C)(C)OC(=O)N[C@H]1CCCCC/C=C\[C@@H]2C[C@@]2(C(=O)NS(=O)(=O)C2CC2)NC(=O)[C@@H]2C[C@@H](OC(=O)N3Cc4ccc(F)cc4C3)CN2C1=O [Compound 111]	< 100 nM	< 100 nM	–
CC(C)(C)OC(=O)N[C@H]1CCCCC/C=C\[C@@H]2C[C@@]2(C(=O)Nc2ccccc2)NC(=O)[C@@H]2C[C@@H](OC(=O)N3Cc4ccccc4C3)CN2C1=O [Compound 601]	< 100 nM	< 1000 nM	–
CC(C)(C)OC(=O)N[C@H]1CCCCC/C=C\[C@@H]2C[C@@]2(C(=O)NS(=O)(=O)C2CC2)NC(=O)[C@@H]2C[C@@H](OC(=O)N3CCc4cccc(F)c4C3)CN2C1=O [Compound 257]	< 100 nM	< 100 nM	–
O=C1N[C@]2(C(=O)NS(=O)(=O)C3CC3)C[C@H]2/C=C\CCCCC[C@H](NCCCC(F)(F)F)C(=O)N2C[C@H](OC(=O)N3Cc4cccc(F)c4C3)C[C@@H]12 [Compound 902]	< 100 nM	< 100 nM	–
O=C1N[C@]2(C(=O)NS(=O)(=O)C3CC3)C[C@H]2/C=C\CCCCC[C@H](NCc2ccc(F)c(F)c2)C(=O)N2C[C@H](OC(=O)N3Cc4cccc(F)c4C3)C[C@@H]12 [Compound 904]	< 100 nM	< 100 nM	–
CCCNC(=O)[C@@]12C[C@H]1/C=C\CCCCC[C@H](NC(=O)OC(C)(C)C)C(=O)N1C[C@H](OC(=O)N3Cc4ccccc4C3)C[C@H]1C(=O)N2 [Compound 600]	< 100 nM	< 1000 nM	–
O=C1N[C@]2(C(=O)NS(=O)(=O)C3CC3)C[C@H]2/C=C\CCCCC[C@H](Nc2nc(-c3ccccc3)cs2)C(=O)N2C[C@H](OC(=O)N3Cc4cccc(Cl)c4C3)C[C@@H]12 [Compound 929]	< 100 nM	< 100 nM	–
CC(C)(C)OC(=O)N[C@H]1CCCCC/C=C\[C@@H]2C[C@@]2(C(=O)NCC(F)F)NC(=O)[C@@H]2C[C@@H](OC(=O)N3Cc4cccc(F)c4C3)CN2C1=O [Compound 612]	< 1000 nM	< 1000 nM	–
